Test results from PubChem BioAssay (NCI).
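GI50 is the concentration that inhibits growth by half. TGI denotes the concentration required for complete inhibition of growth.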

Experiments:
Test in all cases: NCI-60 cell line screen, 384-well format
UO-31 renal = test system: UO-31 renal
SK-MEL-5 melanoma = test system: SK-MEL-5 melanoma
OVCAR-8 ovarian = test system: OVCAR-8 ovarian
SK-OV-3 ovarian = test system: SK-OV-3 ovarian
786-0 renal = test system: 786-0 renal
SNB-19 CNS = test system: SNB-19 CNS
NCI-H322M lung = test system: NCI-H322M lung
MDA-MB-231 breast = test system: MDA-MB-231 breast
HOP-62 NSCLC = test system: HOP-62 NSCLC
MCF7 breast = test system: MCF7 breast
PC-3 prostate = test system: PC-3 prostate
OVCAR-3 ovarian = test system: OVCAR-3 ovarian
SF-295 CNS = test system: SF-295 CNS
NCI-H226 lung = test system: NCI-H226 lung
SNB-75 CNS = test system: SNB-75 CNS
NCI-H460 NSCLC = test system: NCI-H460 NSCLC
K-562 leukemia = test system: K-562 leukemia
MDA-MB-435 melanoma = test system: MDA-MB-435 melanoma
CCRF-CEM leukemia = test system: CCRF-CEM leukemia
HS 578T breast = test system: HS 578T breast
LOX IMVI melanoma = test system: LOX IMVI melanoma
SN12C renal = test system: SN12C renal
A498 renal = test system: A498 renal
OVCAR-5 ovarian = test system: OVCAR-5 ovarian
SR leukemia = test system: SR leukemia
RPMI-8226 leukemia = test system: RPMI-8226 leukemia
T-47D breast = test system: T-47D breast
NCI/ADR-RES ovarian = test system: NCI/ADR-RES ovarian
SF-268 CNS = test system: SF-268 CNS
SK-MEL-28 melanoma = test system: SK-MEL-28 melanoma
RXF 393 renal = test system: RXF 393 renal
HCT-116 colon = test system: HCT-116 colon
A549 NSCLC = test system: A549 NSCLC
DU-145 prostate = test system: DU-145 prostate
OVCAR-4 ovarian = test system: OVCAR-4 ovarian
COLO 205 colon = test system: COLO 205 colon
NCI-H522 lung = test system: NCI-H522 lung
SF-539 CNS = test system: SF-539 CNS
IGROV1 ovarian = test system: IGROV1 ovarian
HOP-92 NSCLC = test system: HOP-92 NSCLC
CAKI-1 renal = test system: CAKI-1 renal
MDA-MB-468 breast = test system: MDA-MB-468 breast
SW-620 colon = test system: SW-620 colon
MOLT-4 leukemia = test system: MOLT-4 leukemia
BT-549 breast = test system: BT-549 breast
NCI-H23 lung = test system: NCI-H23 lung
KM12 colon = test system: KM12 colon
UACC-257 melanoma = test system: UACC-257 melanoma
ACHN renal = test system: ACHN renal
HCC-2998 colon = test system: HCC-2998 colon
U251 glioblastoma = test system: U251 glioblastoma
UACC-62 melanoma = test system: UACC-62 melanoma
HT29 colon = test system: HT29 colon
EKVX NSCLC = test system: EKVX NSCLC
M14 melanoma = test system: M14 melanoma
HL-60(TB) leukemia = test system: HL-60(TB) leukemia
HCT-15 colon = test system: HCT-15 colon
TK-10 renal = test system: TK-10 renal
SK-MEL-2 melanoma = test system: SK-MEL-2 melanoma
MALME-3M melanoma = test system: MALME-3M melanoma

## CC(=O)OC1C(C)OC(Oc2c(-c3ccc(O)cc3)oc3cc(O)cc(O)c3c2=O)C(O)C1OC(C)=O (stereo not drawn)
UO-31 renal
  GI50: > 100 µM
  TGI: > 100 µM
SK-MEL-5 melanoma
  GI50: 32.5 µM
  TGI: > 100 µM
OVCAR-8 ovarian
  GI50: 31.4 µM
  TGI: > 100 µM
SK-OV-3 ovarian
  GI50: 46.3 µM
  TGI: > 100 µM
786-0 renal
  GI50: 62 µM
  TGI: > 100 µM
SNB-19 CNS
  GI50: 50.4 µM
  TGI: > 100 µM
NCI-H322M lung
  GI50: 46.9 µM
  TGI: > 100 µM
MDA-MB-231 breast
  GI50: 25.7 µM
  TGI: 74.1 µM
HOP-62 NSCLC
  GI50: 20.8 µM
  TGI: 49 µM
MCF7 breast
  GI50: 37.2 µM
  TGI: > 100 µM
PC-3 prostate
  GI50: 38.9 µM
  TGI: > 100 µM
OVCAR-3 ovarian
  GI50: 23.3 µM
  TGI: 57.7 µM
SF-295 CNS
  GI50: 33.9 µM
  TGI: > 100 µM
NCI-H226 lung
  GI50: 34.2 µM
  TGI: > 100 µM
SNB-75 CNS
  GI50: 32 µM
  TGI: 97 µM
NCI-H460 NSCLC
  GI50: 39.5 µM
  TGI: > 100 µM
K-562 leukemia
  GI50: 34.4 µM
  TGI: > 100 µM
MDA-MB-435 melanoma
  GI50: 40.8 µM
  TGI: > 100 µM
CCRF-CEM leukemia
  GI50: 20.2 µM
  TGI: 37.6 µM
HS 578T breast
  GI50: 21.5 µM
  TGI: 62.4 µM
LOX IMVI melanoma
  GI50: 31.6 µM
  TGI: > 100 µM
SN12C renal
  GI50: 32.2 µM
  TGI: > 100 µM
A498 renal
  GI50: 92.1 µM
  TGI: > 100 µM
OVCAR-5 ovarian
  GI50: > 100 µM
  TGI: > 100 µM
SR leukemia
  GI50: 17.7 µM
  TGI: 34.2 µM
RPMI-8226 leukemia
  GI50: 15.1 µM
  TGI: 30.8 µM
T-47D breast
  GI50: 19.5 µM
  TGI: 47.7 µM
NCI/ADR-RES ovarian
  GI50: > 100 µM
  TGI: > 100 µM
SF-268 CNS
  GI50: 28.8 µM
  TGI: 92.7 µM
SK-MEL-28 melanoma
  GI50: 32.2 µM
  TGI: > 100 µM
RXF 393 renal
  GI50: 23 µM
  TGI: 65.9 µM
HCT-116 colon
  GI50: 39.2 µM
  TGI: > 100 µM
A549 NSCLC
  GI50: > 100 µM
  TGI: > 100 µM
DU-145 prostate
  GI50: 27.6 µM
  TGI: 77.1 µM
OVCAR-4 ovarian
  GI50: 36.4 µM
  TGI: > 100 µM
COLO 205 colon
  GI50: 93.1 µM
  TGI: > 100 µM
NCI-H522 lung
  GI50: 20.5 µM
  TGI: 46.2 µM
SF-539 CNS
  GI50: > 100 µM
  TGI: > 100 µM
IGROV1 ovarian
  GI50: 44.7 µM
  TGI: > 100 µM
HOP-92 NSCLC
  GI50: 28.6 µM
  TGI: 76.8 µM
CAKI-1 renal
  GI50: > 100 µM
  TGI: > 100 µM
MDA-MB-468 breast
  GI50: 19.6 µM
  TGI: 38.7 µM
SW-620 colon
  GI50: 59.1 µM
  TGI: > 100 µM
MOLT-4 leukemia
  GI50: 17.4 µM
  TGI: 31.9 µM
BT-549 breast
  GI50: 19.4 µM
  TGI: 44.7 µM
NCI-H23 lung
  GI50: 28.8 µM
  TGI: 82.3 µM
KM12 colon
  GI50: 41.9 µM
  TGI: > 100 µM
UACC-257 melanoma
  GI50: 43.5 µM
  TGI: > 100 µM
ACHN renal
  GI50: 74.5 µM
  TGI: > 100 µM
HCC-2998 colon
  GI50: 38.7 µM
  TGI: > 100 µM
U251 glioblastoma
  GI50: 46.4 µM
  TGI: > 100 µM
UACC-62 melanoma
  GI50: 23.1 µM
  TGI: 63.6 µM
HT29 colon
  GI50: 63.6 µM
  TGI: > 100 µM
EKVX NSCLC
  GI50: 83.8 µM
  TGI: > 100 µM
M14 melanoma
  GI50: 39.8 µM
  TGI: > 100 µM
HL-60(TB) leukemia
  GI50: 17.5 µM
  TGI: 31.5 µM
HCT-15 colon
  GI50: 87.7 µM
  TGI: > 100 µM
TK-10 renal
  GI50: > 100 µM
  TGI: > 100 µM
SK-MEL-2 melanoma
  GI50: 30 µM
  TGI: 73.8 µM
MALME-3M melanoma
  GI50: 20.2 µM
  TGI: 49.8 µM

## Cc1c(C(=O)Nc2ccc(Oc3ccnc4cc(OCC(C)(C)O)ccc34)c(F)c2)c(=O)n(-c2ccccc2)n1C
UO-31 renal
  GI50: 4.31 µM
  TGI: > 100 µM
SK-MEL-5 melanoma
  GI50: 1.89 µM
  TGI: 4.77 µM
OVCAR-8 ovarian
  GI50: 3.69 µM
  TGI: > 88.7 µM
SK-OV-3 ovarian
  GI50: 3.51 µM
  TGI: > 50.8 µM
786-0 renal
  GI50: 5.8 µM
  TGI: 96.9 µM
SNB-19 CNS
  GI50: 4.78 µM
  TGI: > 100 µM
NCI-H322M lung
  GI50: 3.34 µM
  TGI: 21.8 µM
MDA-MB-231 breast
  GI50: 3.26 µM
  TGI: > 30.4 µM
HOP-62 NSCLC
  GI50: 2.34 µM
  TGI: > 22.5 µM
MCF7 breast
  GI50: 3.5 µM
  TGI: > 38.9 µM
PC-3 prostate
  GI50: 3.76 µM
  TGI: > 100 µM
OVCAR-3 ovarian
  GI50: 4.83 µM
  TGI: > 100 µM
SF-295 CNS
  GI50: 1.37 µM
  TGI: > 23.6 µM
NCI-H226 lung
  GI50: 1.93 µM
  TGI: 7.08 µM
SNB-75 CNS
  GI50: 2.68 µM
  TGI: > 28.1 µM
NCI-H460 NSCLC
  GI50: 2.62 µM
  TGI: 6.33 µM
K-562 leukemia
  GI50: 0.152 µM
  TGI: 0.391 µM
MDA-MB-435 melanoma
  GI50: 3.31 µM
  TGI: > 31.4 µM
CCRF-CEM leukemia
  GI50: 2.61 µM
  TGI: 7.97 µM
HS 578T breast
  GI50: 1.86 µM
  TGI: 4.85 µM
LOX IMVI melanoma
  GI50: 2.65 µM
  TGI: > 44 µM
SN12C renal
  GI50: 0.484 µM
  TGI: 4.82 µM
A498 renal
  GI50: 3.58 µM
  TGI: > 37.7 µM
OVCAR-5 ovarian
  GI50: 3.04 µM
  TGI: > 100 µM
SR leukemia
  GI50: 2 µM
  TGI: 3.82 µM
RPMI-8226 leukemia
  GI50: 3.03 µM
  TGI: 7.45 µM
T-47D breast
  GI50: 1.57 µM
  TGI: 4.72 µM
NCI/ADR-RES ovarian
  GI50: 4.13 µM
  TGI: > 44.1 µM
SF-268 CNS
  GI50: 3.23 µM
  TGI: > 19.7 µM
SK-MEL-28 melanoma
  GI50: 3.58 µM
  TGI: > 30.3 µM
RXF 393 renal
  GI50: 1.66 µM
  TGI: 4.11 µM
HCT-116 colon
  GI50: 3.97 µM
  TGI: > 100 µM
A549 NSCLC
  GI50: 4.26 µM
  TGI: > 100 µM
DU-145 prostate
  GI50: 6.27 µM
  TGI: > 100 µM
OVCAR-4 ovarian
  GI50: 4.8 µM
  TGI: > 100 µM
COLO 205 colon
  GI50: 2.26 µM
  TGI: 6.93 µM
NCI-H522 lung
  GI50: 3.74 µM
  TGI: > 36.9 µM
SF-539 CNS
  GI50: 3.68 µM
  TGI: > 100 µM
IGROV1 ovarian
  GI50: 4.3 µM
  TGI: > 100 µM
HOP-92 NSCLC
  GI50: 2.36 µM
  TGI: > 25.8 µM
CAKI-1 renal
  GI50: 0.963 µM
  TGI: > 39 µM
MDA-MB-468 breast
  GI50: 1.62 µM
  TGI: 4.86 µM
SW-620 colon
  GI50: 4.53 µM
  TGI: > 100 µM
MOLT-4 leukemia
  GI50: 1.46 µM
  TGI: 3.66 µM
BT-549 breast
  GI50: > 23.7 µM
  TGI: > 65.3 µM
NCI-H23 lung
  GI50: 1.52 µM
  TGI: 7.35 µM
KM12 colon
  GI50: 0.258 µM
  TGI: > 100 µM
UACC-257 melanoma
  GI50: 3.24 µM
  TGI: 22 µM
ACHN renal
  GI50: 3.39 µM
  TGI: > 100 µM
HCC-2998 colon
  GI50: > 31.1 µM
  TGI: > 100 µM
U251 glioblastoma
  GI50: 4.93 µM
  TGI: > 100 µM
UACC-62 melanoma
  GI50: 1.41 µM
  TGI: 4.21 µM
HT29 colon
  GI50: 2.55 µM
  TGI: > 100 µM
EKVX NSCLC
  GI50: 2.61 µM
  TGI: 8.53 µM
M14 melanoma
  GI50: 2.68 µM
  TGI: > 22.7 µM
HL-60(TB) leukemia
  GI50: 3.5 µM
  TGI: 6.78 µM
HCT-15 colon
  GI50: 4.13 µM
  TGI: > 69.6 µM
TK-10 renal
  GI50: 5.2 µM
  TGI: > 100 µM
MALME-3M melanoma
  GI50: 2.11 µM
  TGI: 5.14 µM
